In PMC9710775, “Bitter taste sensitivity in domestic dogs (Canis familiaris) and its relevance to bitter deterrents of ingestion” (PLOS ONE, 2022):
Like-named read-outs stand apart in the source and are kept apart here.

Assays:
Experiment in all cases: calcium imaging (Cal520-AM), HEK293T cells
Assay type in all cases: cell-based
[1] = molecular target: T1, dTas2r4 (Canis lupus, UniProt A0A8I3SCV7)
T1 construct: gene TAS2R4; HEK293T-PEAKrapid cells with Galpha16i/o44
T1 sequence (A0A8I3SCV7 1-299): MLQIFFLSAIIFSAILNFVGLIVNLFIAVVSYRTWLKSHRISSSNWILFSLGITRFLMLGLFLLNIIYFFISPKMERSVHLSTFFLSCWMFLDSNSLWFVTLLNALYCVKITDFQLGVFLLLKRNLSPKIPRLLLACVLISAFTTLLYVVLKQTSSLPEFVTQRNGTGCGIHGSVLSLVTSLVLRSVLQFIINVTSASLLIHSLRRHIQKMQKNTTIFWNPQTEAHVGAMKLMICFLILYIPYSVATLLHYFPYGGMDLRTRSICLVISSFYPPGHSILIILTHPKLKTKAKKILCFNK
Description: calcium imaging (Cal520-AM), HEK293T cells on dTas2r4

[2] = molecular target: T2, dTas2r1 (Canis lupus, UniProt Q2ABE0); conditions: agonist; Galpha16i/o44 cells; lowest concentration differing from mock cells; EC50 not determined
T2 construct: gene TAS2R1; HEK293T-PEAKrapid cells with Galpha16i/o44; gene on dog chromosome 34
T2 sequence (Q2ABE0 1-297): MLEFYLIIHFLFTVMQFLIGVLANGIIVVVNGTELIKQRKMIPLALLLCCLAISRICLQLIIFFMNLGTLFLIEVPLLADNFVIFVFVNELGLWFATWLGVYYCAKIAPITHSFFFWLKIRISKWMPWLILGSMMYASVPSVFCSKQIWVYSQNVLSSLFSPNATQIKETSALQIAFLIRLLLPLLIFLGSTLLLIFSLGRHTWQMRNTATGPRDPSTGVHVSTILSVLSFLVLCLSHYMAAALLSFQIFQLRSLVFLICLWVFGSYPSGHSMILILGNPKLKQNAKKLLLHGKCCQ
Description: calcium imaging (Cal520-AM), HEK293T cells on dTas2r1

[3] = molecular target: T3, dTas2r41 (Canis lupus, UniProt A0A8I3NKU5); conditions: agonist; Galpha16i/o44 cells; lowest concentration differing from mock cells; EC50 not determined
T3 construct: gene TAS2R41; HEK293T-PEAKrapid cells with Galpha16i/o44
T3 sequence (A0A8I3NKU5 1-308): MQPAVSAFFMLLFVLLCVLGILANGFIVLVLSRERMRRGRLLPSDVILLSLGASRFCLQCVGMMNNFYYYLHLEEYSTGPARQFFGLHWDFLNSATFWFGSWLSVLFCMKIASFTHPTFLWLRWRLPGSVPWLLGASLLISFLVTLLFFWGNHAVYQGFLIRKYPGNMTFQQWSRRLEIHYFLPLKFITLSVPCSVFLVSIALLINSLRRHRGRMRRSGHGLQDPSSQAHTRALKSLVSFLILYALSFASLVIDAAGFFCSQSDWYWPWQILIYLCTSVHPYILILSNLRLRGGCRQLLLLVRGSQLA
Description: calcium imaging (Cal520-AM), HEK293T cells on dTas2r41

[4] = molecular target: T4, dTas2r5 (Canis lupus, UniProt Q2ABD6)
T4 construct: gene TAS2R5; HEK293T-PEAKrapid cells with Galpha16i/o44
T4 sequence (Q2ABD6 1-295): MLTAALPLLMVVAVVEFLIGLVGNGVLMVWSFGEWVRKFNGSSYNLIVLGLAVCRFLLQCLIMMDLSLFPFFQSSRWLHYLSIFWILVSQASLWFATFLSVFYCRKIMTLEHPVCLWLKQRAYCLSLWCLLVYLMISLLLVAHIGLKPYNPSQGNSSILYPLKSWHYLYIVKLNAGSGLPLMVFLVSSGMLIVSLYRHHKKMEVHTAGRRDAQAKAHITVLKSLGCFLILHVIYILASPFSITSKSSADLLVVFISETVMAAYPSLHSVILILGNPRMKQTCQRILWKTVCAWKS
Description: calcium imaging (Cal520-AM), HEK293T cells on dTas2r5

[5] = molecular target: T5, dTas2r10 (Canis lupus, UniProt Q2ABD4)
T5 construct: gene TAS2R10; HEK293T-PEAKrapid cells with Galpha16i/o44
T5 sequence (Q2ABD4 1-322): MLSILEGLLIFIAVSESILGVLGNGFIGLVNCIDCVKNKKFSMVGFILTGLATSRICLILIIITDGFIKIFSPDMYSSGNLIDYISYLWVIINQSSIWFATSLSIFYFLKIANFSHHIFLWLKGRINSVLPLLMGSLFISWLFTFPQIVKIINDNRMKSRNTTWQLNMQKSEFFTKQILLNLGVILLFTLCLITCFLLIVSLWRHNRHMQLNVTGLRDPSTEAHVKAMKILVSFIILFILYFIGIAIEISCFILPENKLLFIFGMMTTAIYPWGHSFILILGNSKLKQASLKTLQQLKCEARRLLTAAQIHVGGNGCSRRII
Description: calcium imaging (Cal520-AM), HEK293T cells on dTas2r10

Q: Which results are given for `O=C1NS(=O)(=O)c2cc([N+](=O)[O-])ccc21` [6-Nitrosaccharin]?
A: EC50 ([1]; read-out: dTas2r4): 1.12 mM; dTas2r1 [2]: 0.041 mM

Q: For `CC[N+](C)(CC)CCOC(=O)C(O)(c1ccccc1)C1CCCCC1` (stereo not drawn) [Oxyphenonium bromide], which EC50 ([1]; read-out: dTas2r4) is on record?
A: Its EC50 is 4.76 mM.

Q: And the dTas2r41 [3]?
A: The dTas2r41 was 11.11 mM.

Q: For `OC[C@H]1O[C@H](O[C@]2(CCl)O[C@H](CCl)[C@@H](O)[C@@H]2O)[C@H](O)[C@@H](O)[C@H]1Cl` [Sucralose], which EC50 [4] is on record?
A: The EC50 was 42.9 mM.

Q: For `CC(=O)OC(C)(C)/C=C/C(=O)[C@](C)(O)[C@H]1[C@H](O)C[C@@]2(C)[C@@H]3CC=C4[C@@H](C[C@H](O)C(=O)C4(C)C)[C@]3(C)C(=O)C[C@]12C` [Cucurbitacin B], which EC50 [5] is on record?
A: The EC50 was 0.0024 mM.

Q: With `COc1cccc2c1cc([N+](=O)[O-])c1c(C(=O)O)cc3c(c12)OCO3` [Aristolochic acid I] as the compound, how does the EC50 [1] read?
A: Its EC50 is 0.19 mM.

Q: For `O=c1cc(-c2ccccc2)oc2ccccc12` [Flavone], which dTas2r1 [2] is on record?
A: The dTas2r1 was 0.00082 mM.

Q: Which EC50 ([1]; read-out: dTas2r4) does the source give for `CC[N+](CC)(CC(=O)Nc1c(C)cccc1C)Cc1ccccc1` [Denatonium benzoate] here?
A: The EC50 was 4.35 mM.
